Columns and labels:
Type in all cases: functional
NCI-H226 [1] = experiment: Cytotoxicity against human NCI-H226 cells assessed as cell growth at 1 uM after 48 hrs by sulforhodamine B assay relative to control; details: NCI-H226, 48 h, read-out: Activity
HL-60(TB) [2] = experiment: Cytotoxicity against human HL-60(TB) cells assessed as cell growth at 1 uM after 48 hrs by sulforhodamine B assay relative to control; details: HL-60, 48 h, read-out: Activity
BT-549 = experiment: Cytotoxicity against human BT549 cells assessed as cell growth at 1 uM after 48 hrs by sulforhodamine B assay relative to control; details: BT-549, 48 h, read-out: Activity
SNB-19 = experiment: Cytotoxicity against human SNB19 cells assessed as growth inhibition after 48 hrs by sulforhodamine B assay; details: SNB-19, 48 h
KM12 = experiment: Cytotoxicity against human KM12 cells assessed as cell growth at 10 uM after 48 hrs by sulforhodamine B assay relative to control; details: KM12, 48 h, read-out: Activity
HCT-116 [3] = experiment: Cytotoxicity against human HCT116 cells assessed as cell growth at 0.01 uM after 48 hrs by sulforhodamine B assay relative to control; details: HCT-116, 48 h, read-out: Activity
K562 = experiment: Cytotoxicity against human K562 cells assessed as cell growth at 1 uM after 48 hrs by sulforhodamine B assay relative to control; details: K562, 48 h, read-out: Activity
NCI-H226 [4] = experiment: Cytotoxicity against human NCI-H226 cells assessed as cell growth at 0.1 uM after 48 hrs by sulforhodamine B assay relative to control; details: NCI-H226, 48 h, read-out: Activity
A549 = experiment: Cytotoxicity against human A549/ATCC cells assessed as cell growth at 100 uM after 48 hrs by sulforhodamine B assay relative to control; details: A549, 48 h, read-out: Activity
HL-60(TB) [5] = experiment: Cytotoxicity against human HL-60(TB) cells assessed as growth inhibition after 48 hrs by sulforhodamine B assay; details: HL-60, 48 h
SW-620 [6] = experiment: Cytotoxicity against human SW620 cells assessed as cell growth at 0.01 uM after 48 hrs by sulforhodamine B assay relative to control; details: SW-620, 48 h, read-out: Activity
PC-3 [7] = experiment: Cytotoxicity against human PC3 cells assessed as cell growth at 100 uM after 48 hrs by sulforhodamine B assay relative to control; details: PC-3, 48 h, read-out: Activity
OVCAR-8 [8] = experiment: Cytotoxicity against human OVCAR8 cells assessed as cell growth at 0.1 uM after 48 hrs by sulforhodamine B assay relative to control; details: OVCAR-8, 48 h, read-out: Activity
IGROV-1 = experiment: Cytotoxicity against human IGROV1 cells assessed as cell growth at 10 uM after 48 hrs by sulforhodamine B assay relative to control; details: IGROV-1, 48 h, read-out: Activity
ACHN = experiment: Cytotoxicity against human ACHN cells assessed as cell growth at 0.1 uM after 48 hrs by sulforhodamine B assay relative to control; details: read-out: Activity
COLO 205 = experiment: Cytotoxicity against human COLO205 cells assessed as cell growth at 100 uM after 48 hrs by sulforhodamine B assay relative to control; details: COLO 205, 48 h, read-out: Activity
SF-539 = experiment: Cytotoxicity against human SF539 cells assessed as cell growth at 1 uM after 48 hrs by sulforhodamine B assay relative to control; details: SF-539, 48 h, read-out: Activity
SW-620 [9] = experiment: Cytotoxicity against human SW620 cells assessed as cell growth at 0.1 uM after 48 hrs by sulforhodamine B assay relative to control; details: SW-620, 48 h, read-out: Activity
MCF7 = experiment: Cytotoxicity against human MCF7 cells assessed as cell growth at 0.1 uM after 48 hrs by sulforhodamine B assay relative to control; details: MCF7, 48 h, read-out: Activity
UACC-257 = experiment: Cytotoxicity against human UACC257 cells assessed as cell growth at 0.01 uM after 48 hrs by sulforhodamine B assay relative to control; details: UACC-257, 48 h, read-out: Activity
NCI-H23 = experiment: Cytotoxicity against human NCI-H23 cells assessed as cell growth at 0.1 uM after 48 hrs by sulforhodamine B assay relative to control; details: NCI-H23, 48 h, read-out: Activity
T47D = experiment: Cytotoxicity against human T47D cells assessed as cell growth at 10 uM after 48 hrs by sulforhodamine B assay relative to control; details: read-out: Activity
PC-3 [10] = experiment: Cytotoxicity against human PC3 cells assessed as cell growth at 0.1 uM after 48 hrs by sulforhodamine B assay relative to control; details: PC-3, 48 h, read-out: Activity
UO-31 [11] = experiment: Cytotoxicity against human UO31 cells assessed as cell growth at 10 uM after 48 hrs by sulforhodamine B assay relative to control; details: UO-31, 48 h, read-out: Activity
SK-OV-3 = experiment: Cytotoxicity against human SKOV3 cells assessed as growth inhibition after 48 hrs by sulforhodamine B assay; details: SK-OV-3, 48 h
NCI-H460 [12] = experiment: Cytotoxicity against human NCI-H460 cells assessed as cell growth at 0.1 uM after 48 hrs by sulforhodamine B assay relative to control; details: NCI-H460, 48 h, read-out: Activity
A498 = experiment: Cytotoxicity against human A498 cells assessed as cell growth at 100 uM after 48 hrs by sulforhodamine B assay relative to control; details: A498, 48 h, read-out: Activity
NCI-H522 = experiment: Cytotoxicity against human NCI-H522 cells assessed as cell growth at 0.1 uM after 48 hrs by sulforhodamine B assay relative to control; details: NCI-H522, 48 h, read-out: Activity
OVCAR-8 [13] = experiment: Cytotoxicity against human OVCAR8 cells assessed as cell growth at 100 uM after 48 hrs by sulforhodamine B assay relative to control; details: OVCAR-8, 48 h, read-out: Activity
NCI-H460 [14] = experiment: Cytotoxicity against human NCI-H460 cells assessed as cell growth at 1 uM after 48 hrs by sulforhodamine B assay relative to control; details: NCI-H460, 48 h, read-out: Activity
SK-MEL-5 = experiment: Cytotoxicity against human SK-MEL-5 cells assessed as cell growth at 0.1 uM after 48 hrs by sulforhodamine B assay relative to control; details: SK-MEL-5, 48 h, read-out: Activity
UO-31 [15] = experiment: Cytotoxicity against human UO31 cells assessed as growth inhibition after 48 hrs by sulforhodamine B assay; details: UO-31, 48 h
HCT-116 [16] = experiment: Cytotoxicity against human HCT116 cells assessed as cell growth at 0.1 uM after 48 hrs by sulforhodamine B assay relative to control; details: HCT-116, 48 h, read-out: Activity
HCC 2998 = experiment: Cytotoxicity against human HCC2998 cells assessed as growth inhibition after 48 hrs by sulforhodamine B assay; details: HCC 2998, 48 h

Q: What does the source list for `COc1cc(-c2cc(/C=C/C(=O)c3ccc(F)c(F)c3)[nH]n2)cc(OC)c1OC`?
A: growth at 1 µM (NCI-H226 [1]): 95%; growth at 1 µM (HL-60(TB) [2]): 101%; growth at 1 µM (BT-549): 92%; TGI (SNB-19): > 100 µM; CC50 (SNB-19; read-out: LC50 (the source's name)): > 100 µM; growth at 10 µM (KM12): 3%; growth at 0.01 µM (HCT-116 [3]): 101%; growth at 1 µM (K562): 102%; growth at 0.1 µM (NCI-H226 [4]): 97%; growth at 100 µM (A549): -15%; LC50 (HL-60(TB) [5]): > 100 µM; TGI (HL-60(TB) [5]): 6.03 µM; growth at 0.01 µM (SW-620 [6]): 95%; growth at 100 µM (PC-3 [7]): -41%; growth at 0.1 µM (OVCAR-8 [8]): 96%; growth at 10 µM (IGROV-1): 14%; growth at 0.1 µM (ACHN): 106%; growth at 100 µM (COLO 205): -99%; growth at 1 µM (SF-539): 90%; growth at 0.1 µM (SW-620 [9]): 97%; growth at 0.1 µM (MCF7): 98%; growth at 0.01 µM (UACC-257): 88%; growth at 0.1 µM (NCI-H23): 92%; growth at 10 µM (T47D): 9%; growth at 0.1 µM (PC-3 [10]): 93%; growth at 10 µM (UO-31 [11]): 3%; LC50 (SK-OV-3): > 100 µM; TGI (SK-OV-3): 58.6 µM; growth at 0.1 µM (NCI-H460 [12]): 102%; growth at 100 µM (A498): -40%; growth at 0.1 µM (NCI-H522): 99%; growth at 100 µM (OVCAR-8 [13]): -12%; growth at 1 µM (NCI-H460 [14]): 103%; growth at 0.1 µM (SK-MEL-5): 96%; LC50 (UO-31 [15]): > 100 µM; TGI (UO-31 [15]): 14.2 µM; growth at 0.1 µM (HCT-116 [16]): 102%; LC50 (HCC 2998): > 100 µM; TGI (HCC 2998): 34.1 µM
